Measurements published in ChEMBL document CHEMBL1143026, “A synthetic method for diversification of the P1' substituent in phosphinic dipeptides as a tool for exploration of the specificity of the S1' binding pockets of leucine aminopeptidases” (Bioorg Med Chem, 2007).
“And” between values parts separate entries of the source, which are not always exact repeats. Identical values can stand only once. The source made the active and inactive calls. The calls are words filed in the database; no cut-off is given here.

Tests used:
[1] = Inhibition of pig kidney cytosolic leucine aminopeptidase; set-up: species or system Sus scrofa
[2] = Inhibition of pig kidney microsomal leucine aminopeptidase; set-up: species or system Sus scrofa
Sus scrofa = species on record: Sus scrofa; assay: Inhibition of pig kidney microsomal leucine aminopeptidase at 10 to 20 uM

SMILES | Ki [1] | Ki [2] | Activity (Sus scrofa)
NCc1ccc(NC(CP(=O)(O)C(N)CCc2ccccc2)C(=O)O)cc1 (stereo unspecified) | 4.46 µM | 0.56 µM | –
NC(CCc1ccccc1)P(=O)(O)CC(NCc1ccc(CO)cc1)C(=O)O (stereo unspecified) | 4.21 µM and 1.42 µM | – | inactive
NC(CCc1ccccc1)P(=O)(O)CC(Nc1ccc(CO)cc1)C(=O)O (stereo unspecified) | 10.3 µM and 6.98 µM | 0.9 µM and 1.13 µM | –
NCc1ccc(CNC(CP(=O)(O)C(N)CCc2ccccc2)C(=O)O)cc1 (stereo in doubt; 8,F1) | 2.78 µM | 19.9 µM | –

Other lines, results leading:

Ki [1] | Ki [2] | Activity (Sus scrofa) | SMILES
0.57 µM and 0.45 µM | – | inactive | NC(CCc1ccccc1)P(=O)(O)CC(Nc1ccccc1)C(=O)O (stereo unspecified)
12.4 µM | 1500 µM | – | NC(CCc1ccccc1)P(=O)(O)CC(NCc1ccccc1)C(=O)O (stereo in doubt; 6)
10.1 µM | – | – | NC(CCc1ccccc1)P(=O)(O)CC(NCc1ccccc1)C(=O)O (stereo in doubt; 6,F1) [listing 1 of 2 here]
– | – | inactive | NC(CCc1ccccc1)P(=O)(O)CC(NCc1ccccc1)C(=O)O (stereo in doubt; 6,F1) [listing 2 of 2 here]
2.62 µM | 2.66 µM | – | NCc1ccc(CNC(CP(=O)(O)C(N)CCc2ccccc2)C(=O)O)cc1 (stereo in doubt; 8,F2)
